Measured values reported in patent publication US20150346214A1, “DETECTION OF MEMBRANE PROTEINS” (priority 2012, published 2015).

Legend:
[1] = molecular target: T1, mechanosensitive channel of large conductance (MscL) (Mycobacterium tuberculosis, UniProt P9WJN5); experiment: Phospholipid binding to MscL resolved by native MS / IM-MS in C8E4; conditions: optimised P:L:D ratio of Table 2
T1 sequence (P9WJN5 1-151): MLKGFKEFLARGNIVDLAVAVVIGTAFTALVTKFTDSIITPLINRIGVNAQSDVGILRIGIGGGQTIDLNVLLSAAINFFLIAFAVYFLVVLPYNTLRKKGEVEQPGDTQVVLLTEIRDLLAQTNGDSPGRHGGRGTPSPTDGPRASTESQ

[2] = molecular target: E. coli ammonium channel C-terminally fused to green fluorescent protein (AmtB-GFP) (Escherichia coli, UniProt P69681, S65T); conditions: AmtB-GFP trimer in MS buffer with 2x CMC of the detergent; charge state envelopes modelled with a Gaussian
Procedure: The activation energy required to achieve resolved peaks of E. coli ammonium channel C-terminally fused to green fluorescent protein (AmtB-GFP) was assessed for a variety of non-ionic detergents.
AmtB-GFP was extracted from purified membranes (described above) with 1-2% (w/v) of the detergent of interest in Buffer B and incubated for one to three hours at room temperature or overnight at 4° C. Insoluble material was pelleted by centrifugation at 20,000 g for 25 minutes at 4° C. The clarified supernatant was loaded onto small Ni-NTA agarose (Qiagen) drip columns (Bio-spin Chromatography columns, Bio-Rad) and washed with several column volumes of Buffer C (200 mM sodium chloride, 20 mM Imidazole, 5 mM BME, 2× CMC detergent of interest, and 50 mM TRIS, pH 8.0 at room temperature). AmtB-GFP was eluted with two column volumes of Buffer D (100 mM sodium chloride, 250 mM Imidazole, 5 mM BME, 2× CMC detergent of interest, and 50 mM TRIS, pH 8.0 at room temperature). Eluted protein was concentrated using a 100 kDa MWCO concentrator and buffer exchanged into MS Buffer (2× CMC detergent of interest and 200 mM Ammonium Acetate, pH 8.0 with Ammonium Hydroxide) using a centrifugal buffer exchange device (Micro Bio-Spin 6, Bio-Rad).
Buffer exchanged protein was analysed on a Q-TOF 2 mass spectrometer (Micromass, Manchester, UK) with a Z-spray source including modifications for protein complexes after introduction of complexes from gold-coated nanoflow capillaries.

Compound	# Bound (number of resolvable phospholipids bound) [1]	Zavg (mean charge state) [2]
CCCCCCCC/C=C\CCCCCCCCCCCC(=O)OC[C@H](COP(=O)([O-])OCC[N+](C)(C)C)OC(=O)CCCCCCCCCCC/C=C\CCCCCCCC (stereo in doubt) [DEPC, 1 ,2-dierucoyl-sn-glycero-3-phosphocholine (22:1 Cis)]	2	–
CCCCCCCC/C=C\CCCCCCCCCC(=O)OC[C@H](COP(=O)([O-])OCC[N+](C)(C)C)OC(=O)CCCCCCCCC/C=C\CCCCCCCC (stereo in doubt) [DIPC, 1,2-dieicosenoyl-sn-glycero-3-phosphocholine (20:1 Cis)]	2	–
CCCC/C=C\CCCCCCCC(=O)OC[C@H](COP(=O)([O-])OCC[N+](C)(C)C)OC(=O)CCCCCCC/C=C\CCCC (stereo in doubt) [DMPC, 1,2-dimyristoleoyl-sn-glycero-3-phosphocholine (14:1 Cis)]	2	–
CCCCCCCC/C=C\CCCCCCCCCCCCCC(=O)OC[C@H](COP(=O)([O-])OCC[N+](C)(C)C)OC(=O)CCCCCCCCCCCCC/C=C\CCCCCCCC (stereo in doubt) [DNPC, 1,2-dinervonoyl-sn-glycero-3-phosphocholine (24:1 Cis)]	2	–
CCCCCCCC/C=C\CCCCCCCC(=O)OC[C@H](COP(=O)([O-])OCC[N+](C)(C)C)OC(=O)CCCCCCC/C=C\CCCCCCCC (stereo in doubt) [DOPC, 1,2-dioleoyl-sn-glycero-3-phosphocholine (18:1 Cis)]	2	–
CCCCCC/C=C\CCCCCCCC(=O)OC[C@H](COP(=O)([O-])OCC[N+](C)(C)C)OC(=O)CCCCCCC/C=C\CCCCCC (stereo in doubt) [DPPC, 1,2-dipalmitoleoyl-sn-glycero-3-phosphocholine (16:1 Cis)]	2	–
OC[C@H]1O[C@H](O[C@H]2[C@H](O)[C@@H](O)[C@H](OCCCCCC3CCCCC3)O[C@@H]2CO)[C@H](O)[C@@H](O)[C@@H]1O [Cy5, Cymal-5]	–	31.3
OC[C@H]1O[C@H](O[C@H]2[C@H](O)[C@@H](O)[C@H](OCCCCCCC3CCCCC3)O[C@@H]2CO)[C@H](O)[C@@H](O)[C@@H]1O [Cy6, Cymal-6]	–	30.5
CCCCCCCCCCCCS[C@@H]1O[C@H](CO)[C@@H](O[C@H]2O[C@H](CO)[C@@H](O)[C@H](O)[C@H]2O)[C@H](O)[C@H]1O [DDTM, n-Dodecyl-β-D-thiomaltopyranoside]	–	30.0
CCCCCCCCCCO[C@@H]1O[C@H](CO)[C@@H](O[C@H]2O[C@H](CO)[C@@H](O)[C@H](O)[C@H]2O)[C@H](O)[C@H]1O [DM, n-Decyl-β-D-maltoside]	–	31.4
CCCCCCCCO[C@@H]1O[C@H](CO)[C@@H](O)[C@H](O)[C@H]1O [OG, n-Octyl-β-D-glucopyranoside]	–	31.2
CCCCCCCCS[C@@H]1O[C@H](CO)[C@@H](O)[C@H](O)[C@H]1O [OTG, n-Octyl-β-D-thioglucopyranoside]	–	31.9
CCCCCCCC/C=C\CCCCCCCC(=O)OC[C@H](COP(=O)(O)O[C@H]1C(O)C(O)C(O)[C@@H](OP(=O)(O)O)C1O)OC(=O)CCCCCCC/C=C\CCCCCCCC (stereo partly drawn) [PI]	4	–
CCCCCCCCCCCOC1OC(CO)C(OC2OC(CO)C(O)C(O)C2O)C(O)C1O [UDM, n-Undecyl-β-D-maltoside]	–	30.3
Octyl Glucose Neopentyl Glycol [OGNG]	–	27.9
polyethylene glycol tert-octylphenyl ether [TX100]	–	21.6
polyoxyethylene (8) dodecyl ether [C12E8]	–	25.8
polyoxyethylene (20) cetyl ether [C16E20]	–	25.0
